# Laboratory results: PubChem BioAssay (NCI)
#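 Dose response: 5 concentrations. Exposure: 48 h. Format: 96-well plates. Endpoint: linear interpolation; highest concentration if not reached. At the TGI there is no net growth.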 Square brackets hold non-standard residues; d marks the D form. Peptide text beside a SMILES is read from it. Phe(4-NO2) = N[CH](Cc1ccc([N+](=O)[O-])cc1)C(=O)O
# Legend:
# Assay in all cases: inhibition of tumour cell growth, NCI panel, 48 h
# [1] = test system: UACC-62 melanoma
# [2] = test system: ACHN renal
# [3] = test system: HOP-92 NSCLC
# [4] = test system: NCI/ADR-RES ovarian
# [5] = test system: MDA-MB-435
# [6] = test system: SNB-75 CNS
# [7] = test system: CCRF-CEM leukemia
# [8] = test system: SF-268 CNS
# [9] = test system: HCT-116 colon
# [10] = test system: HCC-2998 colon
# [11] = test system: U251 CNS
# [12] = test system: RXF 393 renal
Compound,TGI [1] [µM],TGI [2] [µM],TGI [3] [µM],TGI [4] [µM],TGI [5] [µM],TGI [6] [µM],TGI [7] [µM],TGI [8] [µM],TGI [9] [µM],TGI [10] [µM],TGI [11] [µM],TGI [12] [µM]
N#Cc1c2ccc([N+](=O)[O-])cc2c(=O)n2c1sc1ccccc12,> 100,> 100,41.3,66.3,> 100,> 100,34.4,> 100,38.8,38.7,95.4,
COc1cc(C2SCC(=O)N2NC(=O)c2ccc(NC(C)=O)cc2OC)ccc1O (stereo unspecified),> 100,> 100,73.9,> 100,> 100,46.7,> 100,99,> 100,,,> 100
CN(C)c1c(C2CC(O)C(CO)O2)c(=O)c1=O (stereo unspecified),> 100,> 100,> 100,> 100,> 100,> 100,,> 100,> 100,> 100,> 100,
CC(C)(C)OC(=O)N1CCC(NC(=O)NC2CCN(C(=O)OC(C)(C)C)CC2)CC1,> 100,> 100,> 100,> 100,> 100,> 100,> 100,> 100,> 100,> 100,> 100,
O=c1oc2ccccc2n1CCCn1c(=O)oc2ccccc21,> 100,> 100,,> 100,> 100,> 100,> 100,> 100,> 100,,> 100,> 100
CCOC(=O)/C=C(/C(=O)OCC)n1ccc(=O)n(CC(=O)OCC)c1=O,3.24,1.76,1.46,8.14,3.64,7.92,,10.9,2.57,5.04,8.03,2.52
C/C(=N\Nc1nc2ccccc2o1)c1cc2ccccc2cn1,2.53,2.55,11.1,,> 43.4,3.7,> 38.5,2.82,15.8,,> 100,4.87
CN=C(N)NC,> 100,> 100,> 100,,,> 100,> 100,> 100,> 100,> 100,> 100,> 100
CCCCN1CCC(O)(c2cc(C(=O)O)[nH]c2-c2cc(C)no2)C1=O (stereo unspecified),> 100,> 100,> 100,> 100,> 100,> 100,,> 100,> 100,> 100,> 100,> 100
COc1cc(OC2OC(CO)C(O)C(O)C2O)c2c(c1)O[C@@H]1[C@H](O)Oc3cc(OC)c(OC)cc3[C@]1(O)C2=O (stereo partly specified),> 25,> 25,> 25,> 25,> 25,> 25,> 25,> 25,> 25,> 25,> 25,
COC(=O)/C=C/c1cnc2c(c1)oc(=O)n2C,> 100,> 100,> 100,> 100,> 100,> 100,> 100,> 100,> 100,> 100,> 100,
CN(C(=O)c1ccc(Cl)cc1)C(=S)N1CCN(c2ccccc2)CC1,> 100,> 100,> 100,,> 100,> 100,> 100,> 100,,> 100,> 100,> 100
CCCCSC1=N/C(=C\c2ccc(N(C)C)cc2)C(Cl)=N1,> 100,> 100,> 100,> 100,> 100,> 100,,> 100,> 100,> 100,> 100,> 100
O=C1/C(=C\c2cccc(Oc3ccccc3)c2)SC(c2ccccc2)N1c1cccc(Cl)c1 (stereo unspecified),> 100,> 100,> 100,> 100,> 100,,,> 100,> 100,> 100,> 100,> 100
CS(=O)(=O)CCC(N)P(=O)(O)O (stereo unspecified),> 100,> 100,> 100,> 100,> 100,> 100,> 100,> 100,> 100,,> 100,
CN(/N=C/c1ccccc1C(=O)O)C1=NCCCCN1,> 100,> 100,> 100,> 100,> 100,> 100,> 100,> 100,> 100,> 100,> 100,
Cc1nn(C(=O)c2ccncc2)c2c1C(c1ccc([N+](=O)[O-])cc1)SC(N)=N2 (stereo unspecified),> 100,> 100,> 100,> 100,> 100,> 100,> 100,> 100,> 100,,> 100,> 100
CCOc1ncnc2ccc(Cl)c(I)c12,> 100,> 100,,,,,> 100,> 100,> 100,> 100,> 100,60.7
NS(=O)(=O)c1nnc(NC(=O)/C=C/C(=O)O)s1,> 100,> 100,> 100,> 100,> 100,,,> 100,> 100,> 100,> 100,> 100
COC(=O)CCC(NC(=O)C(CCC(=O)OC)NC(=O)C(CCC(=O)OC)NC(=O)C(CCC(=O)OC)NC(=O)C(CCC(=O)OC)NC(=O)C(Cc1ccc([N+](=O)[O-])cc1)NC(=O)C(CCC(=O)OC)NC(=O)C(CCC(=O)OC)NC(=O)C(CCC(=O)OC)NC(=O)C(CCC(=O)OC)NC(=O)C(CCC(=O)OC)NC(C)=O)C(N)=O (stereo unspecified) (Ac-E(OMe)E(OMe)E(OMe)E(OMe)E(OMe)[Phe(4-NO2)]E(OMe)E(OMe)E(OMe)E(OMe)E(OMe)-NH2; configuration not given here),,> 100,,> 100,> 100,> 100,> 100,> 100,> 100,,> 100,> 100
